# “Also recorded” adds a separate entry of the source.
# Experiments:
# MAPK1 = target: T1, MAPK1 (Homo sapiens, UniProt P27361); assay: Kinase panel screen; assay type: biochemical; conditions: Compound I and ATP 10 μM
# T1 construct: purchased Upstate USA or Invitrogen (commercial screening service)
# MAPKAP-K3 = target: T2, MAPKAP-K3 (Homo sapiens, UniProt Q16644); assay: Kinase panel screen; assay type: biochemical; conditions: Compound I and ATP 10 μM
# T2 construct: purchased Upstate USA or Invitrogen (commercial screening service)
# IR = target: T3, IR (Homo sapiens, UniProt P06213); assay: Kinase panel screen; assay type: biochemical; conditions: Compound I and ATP 10 μM
# T3 construct: purchased Upstate USA or Invitrogen (commercial screening service)
# JNK2a2 = JNK2a2 (Homo sapiens, UniProt P45984); assay: Kinase panel screen; assay type: biochemical; conditions: Compound I and ATP 10 μM
# TrkA = target: T4, TrkA (Homo sapiens, UniProt P04629); assay: Kinase panel screen; assay type: biochemical; conditions: Compound I and ATP 10 μM
# T4 construct: purchased Upstate USA or Invitrogen (contract screening service)
# histamine-induced edema = assay: Miles assay, histamine as agonist; assay type: in vivo, Sprague-Dawley rats; conditions: rats, Compound I pretreatment (1 mg/kg in FIG. 4)
# Method: Sprague-Dawley rats were first injected IV with vehicle alone or test agent, followed by IV injection of Evans blue dye, followed by intradermal injections of saline and VEGF (200 ng/injection site) along both shaved flanks. […] The ability of test agents to influence edema induced by agonists other than VEGF was also tested. Compounds cited in this application inhibited edema formation induced using histamine as an agonist, for example, as shown below. The ability of test agent to influence vascular edema was tested as above, except that the ability to block edema was tested using either VEGF or histamine as the agonist (200 ng and 10 μg/injection site, respectively).
# [1] = tested on: PAF-induced inflammatory edema; assay: Rat hindpaw inflammation model, PAF; assay type: in vivo, Sprague Dawley rats
# Method: FIG. 4. Inhibition of edema and inflammation. (a, b) Rats were injected i.v. with Evans blue dye and then intradermally with saline, VEGF or histamine. […] (c-f) Rat hindpaws were injected with either PAF (c & d) or dextran (e & f), and three hours later processed as H&E-stained paraffin sections. […] Images were taken of paws representing the mean group value for volume as presented in Results (original magnification 200×).
# The Miles assay models a primarily endothelial-based response that develops rapidly (within minutes). As a comparator, we next employed a rodent hindpaw model where more complex inflammatory reactions develop over several hours. Agonists included PAF, a GPCR ligand that activates both EC and leukocytes, and dextran, a phagocytic stimulus for mast cell and leukocyte activation. […] Paw volume (a more quantitative measure of edema and inflammation) was reduced by 62% and 78% in response to PAF or dextran, respectively (n=8, P<0.001). Finally, to correlate these in vivo responses with the molecular target of interest, we monitored PI3K pathway signaling through Western blot analyses of Akt phosphorylation (a PI3K-mediated event).
# In order to determine the influence of compounds on the development of inflammation, Sprague Dawley rats were first injected intravenously with either vehicle or test compound at 5 mg/kg, and then 30 min later either PBS (as a control), dextran or platelet activating factor (PAF) was injected into the plantar surface of the hindlimbs, dextran and PAF being known to induce localized inflammatory responses marked by edema. Three hours later, paw dimensions were measured using a caliper and paw volumes calculated; data are shown as the increase in paw volume (mm^3) as compared to controls (paws injected with PBS).
# Flt3 = target: T5, Flt3 (Homo sapiens, UniProt P36888); assay: Kinase panel screen; assay type: biochemical; conditions: Compound I and ATP 10 μM
# T5 construct: purchased Upstate USA or Invitrogen (commercial screening service)
# MEK2 = target: T6, MEK2 (Homo sapiens, UniProt P36507); assay: Kinase panel screen; assay type: biochemical; conditions: Compound I at 1 μM and ATP at the apparent Km
# T6 construct: purchased Upstate USA or Invitrogen (commercial screening service)
# PKA = PKA (Homo sapiens, UniProt P17612); assay: Kinase panel screen; assay type: biochemical; conditions: Compound I and ATP 10 μM
# PRK2 = target: T7, PRK2 (Homo sapiens, UniProt Q16513); assay: Kinase panel screen; assay type: biochemical; conditions: Compound I and ATP 10 μM
# T7 construct: purchased Upstate USA or Invitrogen (contract screening service)
# T7 sequence (Q16513 whole entry): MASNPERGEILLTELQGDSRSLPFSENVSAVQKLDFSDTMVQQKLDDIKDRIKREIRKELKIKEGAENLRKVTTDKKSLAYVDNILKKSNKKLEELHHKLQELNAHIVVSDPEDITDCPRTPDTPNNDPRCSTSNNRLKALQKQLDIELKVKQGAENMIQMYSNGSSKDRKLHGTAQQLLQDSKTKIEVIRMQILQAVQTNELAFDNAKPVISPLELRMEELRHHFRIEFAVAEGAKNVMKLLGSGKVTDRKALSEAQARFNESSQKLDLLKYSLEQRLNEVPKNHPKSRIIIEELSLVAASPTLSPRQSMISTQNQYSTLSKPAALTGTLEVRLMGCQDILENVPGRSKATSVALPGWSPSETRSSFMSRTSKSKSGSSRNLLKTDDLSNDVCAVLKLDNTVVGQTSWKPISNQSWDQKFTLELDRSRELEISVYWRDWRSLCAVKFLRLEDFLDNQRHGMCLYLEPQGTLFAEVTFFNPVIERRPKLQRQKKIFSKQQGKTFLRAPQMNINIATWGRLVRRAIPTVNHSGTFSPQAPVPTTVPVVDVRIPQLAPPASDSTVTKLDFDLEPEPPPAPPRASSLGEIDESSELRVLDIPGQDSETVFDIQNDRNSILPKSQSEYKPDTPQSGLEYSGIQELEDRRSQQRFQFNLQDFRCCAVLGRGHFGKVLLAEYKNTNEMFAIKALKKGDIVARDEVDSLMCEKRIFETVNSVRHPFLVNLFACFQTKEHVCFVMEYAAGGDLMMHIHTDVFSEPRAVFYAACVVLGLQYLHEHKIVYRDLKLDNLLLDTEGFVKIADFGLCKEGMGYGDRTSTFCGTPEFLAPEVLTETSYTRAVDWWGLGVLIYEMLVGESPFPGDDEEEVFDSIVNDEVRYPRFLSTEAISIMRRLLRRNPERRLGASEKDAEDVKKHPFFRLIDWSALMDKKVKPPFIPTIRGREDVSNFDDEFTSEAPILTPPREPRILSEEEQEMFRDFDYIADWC
# Rsk1 = target: T8, Rsk1 (Rattus norvegicus, UniProt Q63531); assay: Kinase panel screen; assay type: biochemical; conditions: Compound I and ATP 10 μM
# T8 construct: purchased Upstate USA or Invitrogen (commercial screening service)
# T8 sequence (Q63531 whole entry): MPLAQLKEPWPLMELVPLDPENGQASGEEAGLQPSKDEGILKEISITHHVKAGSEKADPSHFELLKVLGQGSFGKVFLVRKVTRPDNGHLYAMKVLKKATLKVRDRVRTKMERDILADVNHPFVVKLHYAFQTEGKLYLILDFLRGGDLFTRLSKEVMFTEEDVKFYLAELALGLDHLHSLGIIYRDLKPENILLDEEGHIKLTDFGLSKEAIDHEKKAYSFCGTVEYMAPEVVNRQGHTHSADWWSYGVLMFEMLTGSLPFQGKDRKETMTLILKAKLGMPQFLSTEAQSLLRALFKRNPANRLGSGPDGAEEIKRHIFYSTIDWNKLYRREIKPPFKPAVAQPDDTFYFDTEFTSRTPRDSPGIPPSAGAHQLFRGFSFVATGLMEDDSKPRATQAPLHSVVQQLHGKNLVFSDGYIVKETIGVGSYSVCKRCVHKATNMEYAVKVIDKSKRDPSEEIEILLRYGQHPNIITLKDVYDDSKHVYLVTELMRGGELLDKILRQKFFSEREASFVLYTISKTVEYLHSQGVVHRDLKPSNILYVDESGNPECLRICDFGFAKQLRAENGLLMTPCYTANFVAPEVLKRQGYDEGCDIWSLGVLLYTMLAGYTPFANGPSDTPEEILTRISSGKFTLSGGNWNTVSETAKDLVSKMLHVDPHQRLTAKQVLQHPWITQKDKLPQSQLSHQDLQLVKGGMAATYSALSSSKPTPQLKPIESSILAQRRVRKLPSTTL
# PDK1 = target: T9, PDK1 (Homo sapiens, UniProt O15530); assay: Kinase panel screen; assay type: biochemical; conditions: Compound I and ATP 10 μM
# T9 construct: purchased Upstate USA or Invitrogen (commercial screening service)
# PKBy = target: T10, PKBy (Homo sapiens, UniProt Q9Y243); assay: Kinase panel screen; assay type: biochemical; conditions: read-out: Percent Control, PKBy
# T10 construct: purchased Upstate USA or Invitrogen (contract screening service)
# ROCK-I = target: T11, ROCK-I (Homo sapiens, UniProt Q13464); assay: Kinase panel screen; assay type: biochemical; conditions: Compound I and ATP 10 μM
# T11 construct: purchased Upstate USA or Invitrogen (commercial screening service)
# CDK5 = target: T12, CDK5 (Homo sapiens, UniProt Q00535); assay: Kinase panel screen; assay type: biochemical; conditions: Compound I and ATP 10 μM
# T12 construct: purchased Upstate USA or Invitrogen (commercial screening service)
# PKCa = target: T13, PKCa (Homo sapiens, UniProt P17252); assay: Kinase panel screen; assay type: biochemical; conditions: Compound I and ATP 10 μM
# T13 construct: purchased Upstate USA or Invitrogen (contract screening service)
# GSK3a = target: T14, GSK3a (Homo sapiens, UniProt P49840); assay: Kinase panel screen; assay type: biochemical; conditions: Compound I and ATP 10 μM
# T14 construct: purchased Upstate USA or Invitrogen (commercial screening service)
# Ron = target: T15, Ron (Homo sapiens, UniProt Q04912); assay: Kinase panel screen; assay type: biochemical; conditions: Compound I and ATP 10 μM
# T15 construct: purchased Upstate USA or Invitrogen (commercial screening service)
# EphB2 = target: T16, EphB2 (Homo sapiens, UniProt P29323); assay: Kinase panel screen; assay type: biochemical; conditions: Compound I and ATP 10 μM
# T16 construct: purchased Upstate USA or Invitrogen (commercial screening service)
# MAPK2 = target: T17, MAPK2 (Homo sapiens, UniProt P28482); assay: Kinase panel screen; assay type: biochemical; conditions: Compound I and ATP 10 μM
# T17 construct: purchased Upstate USA or Invitrogen (commercial screening service)
# cSrc = target: T18, cSrc (Homo sapiens, UniProt P12931); assay: Kinase panel screen; assay type: biochemical; conditions: Compound I and ATP 10 μM
# T18 construct: purchased Upstate USA or Invitrogen (commercial screening service)
# EGFR = EGFR (Homo sapiens, UniProt P00533); assay: Kinase panel screen; assay type: biochemical; conditions: Compound I and ATP 10 μM
# Plk3 = target: T19, Plk3 (Homo sapiens, UniProt Q9H4B4); assay: Kinase panel screen; assay type: biochemical; conditions: Compound I and ATP 10 μM
# T19 construct: purchased Upstate USA or Invitrogen (contract screening service)
# IRAK4 = target: T20, IRAK4 (Homo sapiens, UniProt Q9NWZ3); assay: Kinase panel screen; assay type: biochemical; conditions: Compound I and ATP 10 μM
# T20 construct: purchased Upstate USA or Invitrogen (contract screening service)
# Pyk2 = target: T21, Pyk2 (Homo sapiens, UniProt Q14289); assay: Kinase panel screen; assay type: biochemical; conditions: Compound I and ATP 10 μM
# T21 construct: purchased Upstate USA or Invitrogen (contract screening service)
# KDR = target: T22, KDR (Homo sapiens, UniProt P35968); assay: Kinase panel screen; assay type: biochemical; conditions: Compound I and ATP 10 μM
# T22 construct: purchased Upstate USA or Invitrogen (contract screening service)
# T22 sequence (P35968 20-1356): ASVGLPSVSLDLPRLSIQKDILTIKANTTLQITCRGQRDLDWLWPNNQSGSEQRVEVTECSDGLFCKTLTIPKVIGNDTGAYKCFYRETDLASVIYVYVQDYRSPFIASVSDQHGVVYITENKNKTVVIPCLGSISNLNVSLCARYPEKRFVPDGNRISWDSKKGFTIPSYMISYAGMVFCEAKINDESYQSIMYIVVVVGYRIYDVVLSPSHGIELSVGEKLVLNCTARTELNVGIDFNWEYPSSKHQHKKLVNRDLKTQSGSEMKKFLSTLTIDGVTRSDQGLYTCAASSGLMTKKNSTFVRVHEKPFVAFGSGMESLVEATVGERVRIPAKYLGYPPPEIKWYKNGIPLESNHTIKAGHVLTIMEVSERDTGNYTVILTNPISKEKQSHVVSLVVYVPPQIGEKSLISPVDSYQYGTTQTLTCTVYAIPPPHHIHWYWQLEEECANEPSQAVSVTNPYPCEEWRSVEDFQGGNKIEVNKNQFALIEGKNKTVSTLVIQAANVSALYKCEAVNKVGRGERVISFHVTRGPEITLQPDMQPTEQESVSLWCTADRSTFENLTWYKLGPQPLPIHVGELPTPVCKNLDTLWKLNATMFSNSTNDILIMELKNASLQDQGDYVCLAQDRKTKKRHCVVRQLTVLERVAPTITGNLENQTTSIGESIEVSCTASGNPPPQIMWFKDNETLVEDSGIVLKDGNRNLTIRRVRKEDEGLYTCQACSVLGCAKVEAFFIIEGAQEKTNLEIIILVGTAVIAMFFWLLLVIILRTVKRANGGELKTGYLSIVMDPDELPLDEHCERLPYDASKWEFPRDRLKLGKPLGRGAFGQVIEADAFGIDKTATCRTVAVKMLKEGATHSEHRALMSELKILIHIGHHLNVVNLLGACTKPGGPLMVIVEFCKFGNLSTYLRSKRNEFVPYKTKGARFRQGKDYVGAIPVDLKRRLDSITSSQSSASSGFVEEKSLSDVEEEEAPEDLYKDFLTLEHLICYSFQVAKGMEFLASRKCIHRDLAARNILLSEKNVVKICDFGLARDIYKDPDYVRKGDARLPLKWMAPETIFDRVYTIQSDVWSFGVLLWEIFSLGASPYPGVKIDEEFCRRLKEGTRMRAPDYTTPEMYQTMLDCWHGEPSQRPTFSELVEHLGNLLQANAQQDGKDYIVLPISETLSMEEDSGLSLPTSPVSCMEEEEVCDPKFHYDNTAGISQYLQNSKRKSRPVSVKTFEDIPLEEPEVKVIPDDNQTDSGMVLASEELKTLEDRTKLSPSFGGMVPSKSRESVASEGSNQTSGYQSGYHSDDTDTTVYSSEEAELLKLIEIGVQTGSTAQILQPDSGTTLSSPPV
# CDK2 = target: T23, CDK2 (Homo sapiens, UniProt P24941); assay: Kinase panel screen; assay type: biochemical; conditions: Compound I and ATP 10 μM
# T23 construct: purchased Upstate USA or Invitrogen (commercial screening service)
# ASK1 = target: T24, ASK1 (Homo sapiens, UniProt Q99683); assay: Kinase panel screen; assay type: biochemical; conditions: Compound I and ATP 10 μM
# T24 construct: purchased Upstate USA or Invitrogen (contract screening service)
# T24 sequence (Q99683 whole entry): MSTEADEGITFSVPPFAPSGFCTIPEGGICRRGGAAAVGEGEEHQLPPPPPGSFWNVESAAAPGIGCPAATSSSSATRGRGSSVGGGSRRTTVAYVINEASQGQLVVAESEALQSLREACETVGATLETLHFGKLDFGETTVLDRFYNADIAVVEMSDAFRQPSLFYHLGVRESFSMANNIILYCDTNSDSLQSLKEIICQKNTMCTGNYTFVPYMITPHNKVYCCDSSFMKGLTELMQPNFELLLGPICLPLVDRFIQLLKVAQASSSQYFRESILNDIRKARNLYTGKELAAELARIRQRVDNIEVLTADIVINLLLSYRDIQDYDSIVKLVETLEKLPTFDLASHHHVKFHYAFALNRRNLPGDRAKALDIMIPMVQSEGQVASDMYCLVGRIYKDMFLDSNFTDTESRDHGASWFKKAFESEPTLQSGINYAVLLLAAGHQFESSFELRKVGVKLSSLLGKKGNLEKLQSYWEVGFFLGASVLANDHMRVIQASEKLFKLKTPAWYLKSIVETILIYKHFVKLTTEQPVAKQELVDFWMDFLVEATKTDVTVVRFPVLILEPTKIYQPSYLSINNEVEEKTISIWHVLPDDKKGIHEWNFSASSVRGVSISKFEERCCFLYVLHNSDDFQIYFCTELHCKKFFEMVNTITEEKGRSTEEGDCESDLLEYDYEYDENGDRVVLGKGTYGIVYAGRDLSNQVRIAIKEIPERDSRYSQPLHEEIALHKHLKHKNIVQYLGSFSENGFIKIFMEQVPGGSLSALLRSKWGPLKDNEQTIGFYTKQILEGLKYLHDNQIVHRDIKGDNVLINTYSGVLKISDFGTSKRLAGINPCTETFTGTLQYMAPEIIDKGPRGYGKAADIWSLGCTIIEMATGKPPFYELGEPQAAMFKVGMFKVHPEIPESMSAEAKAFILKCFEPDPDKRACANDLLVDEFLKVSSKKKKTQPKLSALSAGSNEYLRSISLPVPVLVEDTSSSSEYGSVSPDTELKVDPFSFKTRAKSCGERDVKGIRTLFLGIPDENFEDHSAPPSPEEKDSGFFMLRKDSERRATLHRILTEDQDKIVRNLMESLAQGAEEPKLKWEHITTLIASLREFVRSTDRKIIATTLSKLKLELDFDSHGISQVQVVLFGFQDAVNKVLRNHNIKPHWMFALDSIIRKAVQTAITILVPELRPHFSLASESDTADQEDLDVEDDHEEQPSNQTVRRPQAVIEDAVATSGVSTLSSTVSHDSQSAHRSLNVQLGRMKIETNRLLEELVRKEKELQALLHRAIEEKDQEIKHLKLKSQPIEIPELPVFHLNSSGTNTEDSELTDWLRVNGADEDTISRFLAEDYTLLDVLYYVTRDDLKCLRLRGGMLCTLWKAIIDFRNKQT
smiles,measurement,setting,value
"Nc1nc(N)c2nc(-c3cccc(O)c3)c(-c3cccc(O)c3)nc2n1 [Compound I, 6,7-bis-(3-hydroxyphenyl)-pteridine-2,4-diamine]","Percent Control, MAPK1",MAPK1,97%
same,"Percent Control, MAPKAP-K3",MAPKAP-K3,93%
same,"Percent Control, IR",IR,81%
same,"Percent Control, JNK2a2",JNK2a2,91%
same,"Percent Control, TrkA",TrkA,57%
same,histamine-induced permeability / edema formation,histamine-induced edema,blocked; also recorded: reduced edema formation
same,Increase in Paw Volume vs. Controls,"[1]; 5 mg/kg iv 30 min before, 3 hours, mean±SEM N=6, vehicle 71 ± 9",27 ± 4 mm^3
same,edema and leukocyte infiltration (histology),"[1]; 5 mg/kg pretreatment, three hours",strongly antagonized; also recorded: blocked
same,reduction of paw volume,[1]; n=8,62%
same,"Percent Control, Flt3",Flt3,80%
same,"Percent Control, MEK2*",MEK2,94%
same,"Percent Control, PKA",PKA,93%
same,"Percent Control, PRK2",PRK2,83%
same,"Percent Control, Rsk1 (r)",Rsk1,86%
same,"Percent Control, PDK1",PDK1,90%
same,remaining activity at 10 µM,PKBy,98%
same,"Percent Control, ROCK-I",ROCK-I,93%
same,"Percent Control, CDK5",CDK5,82%
same,"Percent Control, PKCa",PKCa,90%
same,"Percent Control, GSK3a",GSK3a,62%
same,"Percent Control, Ron",Ron,71%
same,"Percent Control, EphB2",EphB2,56%
same,"Percent Control, MAPK2",MAPK2,84%
same,"Percent Control, cSrc",cSrc,53%
same,"Percent Control, EGFR",EGFR,99%
same,"Percent Control, Plk3",Plk3,97%
same,"Percent Control, IRAK4",IRAK4,89%
same,"Percent Control, Pyk2",Pyk2,68%
same,"Percent Control, KDR",KDR,62%
same,"Percent Control, CDK2 (second entry)",CDK2,77%
same,"Percent Control, ASK1",ASK1,105%
